Read-outs that look alike come from different tables or passages of the source.

This is an account of results in publication PMC8414367, “(E)-7-Ethylidene-lithocholic Acid (7-ELCA) Is a Potent Dual Farnesoid X Receptor (FXR) Antagonist and GPBAR1 Agonist Inhibiting FXR-Induced Gene Expression in Hepatocytes and Stimulating Glucagon-like Peptide-1 Secretion From Enteroendocrine Cells” (Frontiers in Pharmacology, 2021).

Data set [1] has as its target T1, human FXR (Homo sapiens, UniProt Q96RI1).
T1 sequence (Q96RI1 1-486): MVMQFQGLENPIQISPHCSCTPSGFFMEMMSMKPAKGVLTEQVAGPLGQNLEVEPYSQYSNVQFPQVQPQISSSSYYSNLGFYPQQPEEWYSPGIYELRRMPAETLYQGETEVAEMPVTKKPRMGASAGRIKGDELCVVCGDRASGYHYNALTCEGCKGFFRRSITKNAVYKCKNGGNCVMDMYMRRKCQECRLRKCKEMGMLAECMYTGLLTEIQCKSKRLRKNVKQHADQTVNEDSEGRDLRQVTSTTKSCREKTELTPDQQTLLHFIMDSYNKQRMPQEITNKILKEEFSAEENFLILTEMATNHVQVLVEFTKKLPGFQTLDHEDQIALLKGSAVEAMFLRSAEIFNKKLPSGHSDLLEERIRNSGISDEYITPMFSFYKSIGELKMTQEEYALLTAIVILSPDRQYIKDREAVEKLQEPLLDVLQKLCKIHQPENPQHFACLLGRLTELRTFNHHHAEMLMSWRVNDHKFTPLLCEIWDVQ
T1 sequence (P19793 1-462 partner): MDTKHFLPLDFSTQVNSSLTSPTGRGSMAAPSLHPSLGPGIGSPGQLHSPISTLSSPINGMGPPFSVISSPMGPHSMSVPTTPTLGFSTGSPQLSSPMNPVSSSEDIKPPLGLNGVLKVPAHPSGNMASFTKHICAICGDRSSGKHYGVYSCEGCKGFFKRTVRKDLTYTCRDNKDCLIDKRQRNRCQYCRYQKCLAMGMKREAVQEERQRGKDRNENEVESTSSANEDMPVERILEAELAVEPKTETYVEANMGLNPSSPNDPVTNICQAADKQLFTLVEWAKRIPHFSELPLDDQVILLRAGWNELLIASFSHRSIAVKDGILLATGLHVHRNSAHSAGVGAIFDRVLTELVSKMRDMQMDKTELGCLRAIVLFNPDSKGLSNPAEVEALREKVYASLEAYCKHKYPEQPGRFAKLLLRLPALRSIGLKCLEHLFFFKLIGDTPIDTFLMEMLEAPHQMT
The data set is described as follows: FXR luciferase reporter gene assay (FXRE-luc) in HepG2 cells, antagonistic mode. The data set is classed as cell-based. The settings on record: for remaining activity at 10 µM: tested compound 10 µM.

Data set [2] has as its target T2, FXR LBD (Homo sapiens, UniProt Q96RI1).
T2 construct: purchased ThermoFisher Scientific PV4833
T2 sequence (Q96RI1 262-486 limits assumed): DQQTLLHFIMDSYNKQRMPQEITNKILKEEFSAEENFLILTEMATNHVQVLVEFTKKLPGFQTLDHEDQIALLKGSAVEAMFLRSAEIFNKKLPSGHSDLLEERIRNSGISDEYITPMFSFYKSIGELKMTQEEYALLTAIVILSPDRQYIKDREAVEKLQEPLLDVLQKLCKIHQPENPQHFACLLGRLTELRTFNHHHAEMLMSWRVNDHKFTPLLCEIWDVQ
As to the kind of experiment: LanthaScreen TR-FRET FXR Coactivator Assay, antagonistic mode (SRC-2 peptide recruitment). The data set is classed as biochemical. On the procedure: The LanthaScreen® TR-FRET FXR Coactivator Assay (goat, PV4833, ThermoFisher Scientific) was performed to assess the affinity of tested compounds to FXR ligand-binding domain (LBD) in agonistic and antagonistic models. In the antagonistic assays, the FXR LBD was co-incubated with OCA or GW4064, together with tested ligands in increasing concentrations. The assay was performed according to the manufacturer’s protocols. […] Data have been obtained from three independent experiments performed in 4 replicates.

The nature of data set [3]: MTS viability assay. The format is cell-based, human. Particulars: human, vehicle = 100%. On the procedure: (§1) The potential cytotoxicity of 7-alkylated chenodeoxycholic acid derivatives were assessed in different human (HepG2, HepaRG and Huh7) and murine (AML12) hepatocyte-derived cell lines. For this purpose, hepatic cells were treated at increasing concentration for 24h and analyzed by MTS viability assay.
(§2) Table S2. Cell viability was determined using the Cell Titer 96 Aqueous One Solution Cell Proliferation Assay (MTS assay) after treatment with test compounds for 24 h in four different hepatic cell lines. Vehicle (0.1% DMSO) and background (10% SDS; v/v, toxic control) controls of cell viability were set to be 100% and 0%, respectively.

Data set [4] deals with HepG2. As to the kind of experiment: MTS viability assay. The data set is classed as cell-based, human. The settings on record: Homo sapiens; HepG2, 24 h, MTS; read-out: IC50 (µM), cell viability. Here is the method:
as §1, §2

Data set [5] relates to HepaRG. The data set is described as follows: MTS viability assay. The settings on record: Homo sapiens, 24 h, MTS, read-out: IC50 (µM), cell viability. The data set is classed as cell-based, human. Here is the method: as §1, §2
The test system of data set [6] is Huh7. The data set is described as follows: MTS viability assay. The data set is classed as cell-based, human. The settings on record: Homo sapiens, Huh-7; Huh7, 24 h, MTS; read-out: IC50 (µM), cell viability. Here is the method: as §1, §2
Data set [7] is described as follows: MTS viability assay. The data set is classed as cell-based, murine. The settings on record: mouse, AML12 cells; AML12, 24 h, vehicle = 100%. On the procedure: as §1, §2
For data set [8], the system named is AML12. As to the kind of experiment: MTS viability assay. Particulars: Mus musculus; AML12, 24 h, MTS; read-out: IC50 (µM), cell viability. The data set is classed as cell-based, murine. Here is the method:
as §1, §2

The target in data set [9] is T1, human FXR. As to the kind of experiment: FXR luciferase reporter gene assay (FXRE-luc) in HepG2 cells, agonistic mode. The settings on record: 10 µM, 24 h, compound alone. The data set is classed as cell-based. On the procedure:
FIGURE 3 Interaction of 7-alkylated derivatives of CDCA and 7-ELCA with human FXR in luciferase reporter gene assays. HepG2 cells were transiently co-transfected with the luciferase FXRE-luc construct and with expression pSG5-hFXR, pSG5-hRXRα, and pRL-TK vectors. Cells were treated with indicated concentrations for 24 h alone (A), an agonistic mode) or with 1 µM OCA as an FXR agonist (B–F), an antagonistic mode). […] IC50 values were calculated using concentration-response curves nonlinear fitting in GraphPad software.

The target in data set [10] is T3, GPBAR1 (Homo sapiens, UniProt Q8TDU6).
T3 construct: host or cells: HepG2
T3 sequence (Q8TDU6 1-330): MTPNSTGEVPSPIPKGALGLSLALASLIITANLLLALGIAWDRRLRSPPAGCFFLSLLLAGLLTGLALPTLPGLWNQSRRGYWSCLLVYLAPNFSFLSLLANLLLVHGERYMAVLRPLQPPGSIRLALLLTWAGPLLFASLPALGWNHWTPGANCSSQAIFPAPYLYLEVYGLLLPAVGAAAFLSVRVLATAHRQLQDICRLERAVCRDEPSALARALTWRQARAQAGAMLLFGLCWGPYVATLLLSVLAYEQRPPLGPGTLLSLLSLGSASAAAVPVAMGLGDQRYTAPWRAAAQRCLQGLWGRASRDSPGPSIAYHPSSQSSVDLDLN
The data set is described as follows: GPBAR1 CRE-luc luciferase reporter assay in HepG2 cells. The settings on record: 10 µM, 5 h, LCA 10 µM set as 100%. The format is cell-based. Here is the method:
(C) Effects of LCA and 7-ELCA (both at 10 µM) on intracellular generation of cAMP in differentiated NCI-H716 cells after 30 min treatment. The increase in cAMP level (ΔcAMP) is presented as the difference between cAMP concertation in the treated sample after subtraction of the cAMP in the nontreated control sample. (D) Concentration-response curves for activation of GPBAR1 by LCA and 7-ELCA. EC50 values were calculated using nonlinear fitting of concentration-response curves. […] GLP-1 was normalized to protein concentration and GPBAR1 mRNA expression to GAPDH mRNA. Data are presented as a fold to control nontreated (NT) samples. Forskolin (FSK, 10 µM) was used as a GPBAR1-independent activator of cAMP production.

In data set [11] the test system is FXR. Also on record: method as in Sun et al., 2018. The settings on record: ref Sun et al., 2018; read-out: IC50, FXR antagonist; cited from earlier work.
For data set [12], the system named is FXR. Also on record: method as in Li et al., 2013; Sayin et al., 2013. The settings on record: co-activator assay, ref Li et al., 2013, Sayin et al., read-out: IC50, FXR antagonist; cited from earlier work.
The mark [13] stands for this setting: HepG2, GW4064 1 µM, read-out: relative response (%) to the model FXR ligand activation (set to be 100%), GW4064 1 µM.
Where [14] appears, read: HepG2, tested compound 40 µM, CDCA 20 µM, * = significant effect on cellular viability, read-out: relative response (%) to the model FXR ligand activation (set to be 100%), CDCA 20 µM.
Setting [15] is: HepG2, tested compound 40 µM, GW4064 1 µM, * = significant effect on cellular viability, read-out: relative response (%) to the model FXR ligand activation (set to be 100%), GW4064 1 µM.

On to `CC(CCC(=O)O)C1CCC2C3C(CCC12C)C1(C)CCC(O)CC1CC3(O)C(C)C` (stereo not drawn) [2h, 3α,7α-Dihydroxy-7β-isopropyl-5β-cholan-24-oic acid], for which the IC50 was 17.5 ± 1.7 µM in data set [1] (HepG2, co-treatment with 1 µM OCA, 24 h, read-out: IC50, inhibition of OCA-induced FXR activation); 35.2 ± 5.4 µM in [2] (GW4064 1 µM, read-out: IC50, inhibition of GW4064-promoted interaction of SRC-2 and FXR); 25 ± 3.7 µM in data set [2] (OCA 1 µM, read-out: IC50, inhibition of OCA-induced recruitment of SRC-2 to FXR LBD); 103.3 ± 1 µM in data set [4]; 181 µM in data set [5]; > 100 µM in [6]. The IC50 in [8] was 143 µM. Further, the inhibition at 100 µM in data set [1] (HepG2, at 100 µM, with 1 µM OCA, read-out: inhibition of FXR activation) is ~90%. In data set [1] (setting [13]), the remaining activity at 10 µM is 91.4 ± 5.3%. The remaining activity at 40 µM in data set [1] (setting [14]) was 47.6 ± 0.3%; in data set [1] (setting [15]), 63 ± 8.2%. In addition, the viability at 24 h, 10 µM in data set [3] (HepG2 cells, HepG2, 24 h) came to 93.4 ± 7.4%; in data set [3] (HepaRG cells), 101 ± 6.9%; in data set [3] (Huh7 cells, Huh7, 24 h), 97.6 ± 7.3%; in data set [7] it was 94 ± 3.7%.

`C[C@H](CCC(=O)O)[C@H]1CCC2C3C(CC[C@@]21C)[C@@]1(C)CC[C@@H](O)C[C@H]1C[C@]3(O)C1CC1` (stereo partly drawn) [2i, 3α,7α-Dihydroxy-7β-cyclopropyl-5β-cholan-24-oic acid] showed a melting point of 78 to 82 °C. Besides, the remaining activity at 10 µM in [1] (setting [13]) stood at 88.4 ± 4.2%. Also, in data set [1] (setting [14]), the remaining activity at 40 µM was found to be 60 ± 5.8%. For the same molecule, in data set [1] (setting [15]), the remaining activity at 40 µM came to 60.5 ± 5.2%. The “FXR activation, agonistic mode (in words)” value in data set [9] is recorded as “significant inhibition of the FXR basal activation”. For the same molecule, the “CRE-luc activation compared to LCA (in words)” value in data set [10] is given as “comparable activities to LCA”. In addition, the viability at 24 h, 10 µM in data set [3] (HepG2 cells, HepG2, 24 h) turned out to be 90.9 ± 0.9%. For the same molecule, in [3] (HepaRG cells), the viability at 24 h, 10 µM was determined as 133 ± 12.2%. In addition, the viability at 24 h, 10 µM in [3] (Huh7 cells, Huh7, 24 h) is 97.9 ± 10.4%. Further, the 50% inhibitory concentration (IC50) in data set [4] came to 178.4 ± 1 µM. In addition, the IC50 in [5] was > 200 µM. The IC50 in data set [6] is > 200 µM. In data set [7], the viability at 24 h, 10 µM stood at 108 ± 3.2%. Further, the half-maximal inhibitory concentration (IC50) in data set [8] was > 200 µM.

As to `C[C@H](CCC(=O)NCC(=O)O)[C@H]1CC[C@H]2[C@@H]3[C@@H](O)C[C@@H]4C[C@H](O)CC[C@]4(C)[C@H]3CC[C@]12C` [GUDCA], the IC50 in data set [11] is 77.2 µM.

As to `C[C@H](CCC(=O)NCCS(=O)(=O)O)[C@H]1CC[C@H]2[C@@H]3[C@@H](O)C[C@@H]4C[C@H](O)CC[C@]4(C)[C@H]3CC[C@]12C` [TUDCA, tauro-ursodeoxycholic acid], the half-inhibitory concentration (IC50) in [11] was 75.1 µM.

As for `C[C@H](CCC(=O)NCCS(=O)(=O)O)[C@H]1CC[C@H]2[C@@H]3[C@@H](O)[C@@H](O)[C@@H]4C[C@H](O)CC[C@]4(C)[C@H]3CC[C@]12C` [Tβ-MCA, tauro-β-muricholic acid, reference compound], the “inhibition of FXR activation” value in data set [1] (at 100 µM, with 1 µM OCA) is recorded as 15%. Besides, the “relative response (%) to the model FXR ligand activation (set to be 100%), CDCA 20 µM” value in data set [1] (tested compound 40 µM, CDCA 20 µM, * = significant effect on cellular viability) is reported as 95.0±5.7%. In [1] (tested compound 40 µM, GW4064 1 µM, * = significant effect on cellular viability), the “relative response (%) to the model FXR ligand activation (set to be 100%), GW4064 1 µM” value was found to be 84.8±6.2%. Also, in data set [12], the half-inhibitory concentration (IC50) was 40 µM.

In the case of `C[C@H](CCC(=O)NCCS(=O)(=O)O)[C@H]1CC[C@H]2[C@@H]3[C@H](O)[C@@H](O)[C@@H]4C[C@H](O)CC[C@]4(C)[C@H]3CC[C@]12C` [tauro-α-MCA], the IC50 in data set [12] was 28 µM.
